{
  "source": "PubChem BioAssay AID1324",
  "about": "(NMMLSC, 2008)",
  "note": "Active and inactive are the calls of the source. No rule for the calls is given here.",
  "data": [
    {"biological_target": "glutathione S-transferase (GST-GSH binding)", "assay": "GST–glutathione interaction disruption – biochemical, multiplex beads, flow cytometry, HPSMTB buffer, profiling panel (AID 1324);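 also: glutathione beads loaded with GST-green fluorescent protein and no fluorescent Bim peptide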", "conditions": "multiplex bead flow cytometry, MCF", "units": {"EC50": "µM"}, "values": [
      {"smiles": "COc1ccc(C2=Nn3c(nnc3-c3ccco3)SC2)cc1OC", "EC50": 4.6}
    ]},
    {"biological_target": "glutathione S-transferase (GST-GSH binding)", "assay": "GST–glutathione interaction disruption – biochemical, multiplex beads, flow cytometry, HPSMTB buffer, profiling panel (AID 1324);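 also: glutathione beads loaded with GST-green fluorescent protein and no fluorescent Bim peptide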", "conditions": "multiplex bead flow cytometry, MCF, active compounds read high, concentration not given here", "values": [
      {"smiles": "O=C(O)C1=C[C@H](C2CC2)C[C@H](OCCCCO)O1", "percent span inhibition": "inactive"},
      {"smiles": "CCOC(=O)CCCNC(=O)c1cncc(O)c1", "percent span inhibition": "inactive"},
      {"smiles": "O=C(O)c1cccc(NC2=C(Cl)C(=O)c3ccccc3C2=O)c1", "percent span inhibition": "inactive"},
      {"smiles": "CCOC(=O)CSC1=NC(=O)/C(=C\\c2ccc(OC(C)=O)cc2)S1", "percent span inhibition": "inactive"},
      {"smiles": "O=S1(=O)N=C(N(CCO)/N=C/C=C/c2ccccc2)c2ccccc21", "percent span inhibition": "inactive"},
      {"smiles": "O=C(Cc1ccccc1)OCCNC(=O)c1cccnc1", "percent span inhibition": "inactive"},
      {"smiles": "O=C(CNC(=O)c1ccco1)NCC(=O)OCc1ccccc1Br", "percent span inhibition": "inactive"},
      {"smiles": "O=C(CSc1ccc(-c2ccccc2)nn1)NCc1ccco1", "percent span inhibition": "inactive"},
      {"smiles": "CCOC(=O)C1(CC/C(C)=N\\NC(N)=O)CC(C)(C)OC1=O", "note": "(stereo not given)", "percent span inhibition": "inactive"},
      {"smiles": "CN(Cc1ccccc1)c1nc2c(c(=O)[nH]c(=O)n2C)n1C", "percent span inhibition": "inactive"},
      {"smiles": "BrC(=C\\c1ccccc1)/C=N/N1CCN(c2ccccc2)CC1", "percent span inhibition": "inactive"},
      {"smiles": "O=[N+]([O-])c1c(NCCO)cc(Sc2nc3ccccc3s2)c2nonc12", "percent span inhibition": "inactive"},
      {"smiles": "CCOC(=O)c1c(NC(C)=O)sc2c(O)c(Br)cc(Br)c12", "percent span inhibition": "inactive"},
      {"smiles": "Cc1ccc(C)n1-c1cccc(C(=O)O)c1", "percent span inhibition": "inactive"},
      {"smiles": "CCCC(=O)OCCNc1cc(Sc2nccn2C)c2nonc2c1[N+](=O)[O-]", "percent span inhibition": "inactive"},
      {"smiles": "CC1(C)CC(NC(=O)COc2ccc([N+](=O)[O-])cc2)CC(C)(C)N1", "percent span inhibition": "inactive"},
      {"smiles": "Cc1cccc(N2C(S)=C(C#N)C(=O)NC2c2cccs2)c1", "note": "(stereo not given)", "percent span inhibition": "inactive"},
      {"smiles": "O=C(Nc1ccc(N2CCOCC2)cc1)Nc1ccc2nc(-c3ccco3)c(-c3ccco3)nc2c1", "percent span inhibition": "inactive"},
      {"smiles": "O=C(N/N=C/c1cccc([N+](=O)[O-])c1)c1cccs1", "percent span inhibition": "inactive"},
      {"smiles": "Cc1cccc(-c2nnc3n2N=C(c2ccccc2)CS3)c1", "percent span inhibition": "inactive"},
      {"smiles": "CCc1ccc(NC(=O)CC2NCCNC2=O)cc1", "note": "(stereo not given)", "percent span inhibition": "inactive"},
      {"smiles": "COc1ccc(NC(=O)c2sccc2SCc2cccc(C(F)(F)F)c2)cc1", "percent span inhibition": "inactive"},
      {"smiles": "CC1CCN(C2(O)C(=O)Nc3ccc(Br)cc32)CC1", "note": "(stereo not given)", "percent span inhibition": "inactive"},
      {"smiles": "COc1ccccc1-n1c(-c2ccccc2)c[nH]c1=S", "percent span inhibition": "inactive"},
      {"smiles": "Cc1cc(C)nc(/N=C(\\N)N2CCc3ccccc32)n1", "percent span inhibition": "inactive"},
      {"smiles": "Cc1ccc(/C=C/C(=O)Nc2ccc([N+](=O)[O-])c(NC(=O)/C=C/c3ccc(C)o3)c2)o1", "percent span inhibition": "inactive"},
      {"smiles": "Cc1ccc(NC(=O)CC2S/C(=N/N=C/c3c[nH]c4ccccc34)NC2=O)cc1", "note": "(stereo not given)", "percent span inhibition": "inactive"},
      {"smiles": "O=C(O)c1ccc(NC2=C/C(=N/S(=O)(=O)c3ccccc3)c3ccccc3C2=O)cc1", "percent span inhibition": "inactive"},
      {"smiles": "CSc1nnc2ccc(-c3cccs3)nn12", "percent span inhibition": "inactive"},
      {"smiles": "NCC(c1ccccc1)c1c[nH]c2ccccc12", "note": "(stereo not given)", "percent span inhibition": "inactive"},
      {"smiles": "O=C(N/N=C/c1ccc(-c2ccccc2[N+](=O)[O-])o1)c1cncc(Br)c1", "percent span inhibition": "inactive"},
      {"smiles": "Cc1cc(N2CCN(C)CC2)nc2ccc(NC(=S)N3CCC4(CC3)OCCO4)cc12", "percent span inhibition": "inactive"},
      {"smiles": "Cc1ccc(NN2C(=O)C=CC2=O)cc1", "percent span inhibition": "inactive"},
      {"smiles": "O=C(/C=C/c1ccccc1Cl)c1ccccc(=O)c1O", "percent span inhibition": "inactive"},
      {"smiles": "Cc1ccc(-c2nc3c(c(=O)[nH]c(=O)n3Cc3ccccc3)n2C)o1", "percent span inhibition": "inactive"},
      {"smiles": "Cc1ccc(-c2cc(-c3ccc(Cl)cc3)c(C#N)c(N)n2)o1", "percent span inhibition": "inactive"},
      {"smiles": "O=C(NCC1CCCO1)c1ccc2c(=O)n(-c3ccc(F)cc3)c(=S)[nH]c2c1", "note": "(stereo not given)", "percent span inhibition": "inactive"},
      {"smiles": "O=C(COc1ccccc1Br)NCc1ccccn1", "percent span inhibition": "inactive"},
      {"smiles": "Cn1c(=O)[nH]c(=O)c2c1nc(N1CCOCC1)n2CCSc1nc2ccccc2[nH]1", "percent span inhibition": "inactive"}
    ]}
  ]
}
